This note sets out measurements from PubChem BioAssay (NCI).

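Grown in 96-well plates, cells were treated for 48 hours with each compound at five concentrations. Insufficient inhibition: endpoint recorded as highest concentration tested. TGI marks complete inhibition of growth.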

Among the test systems are HCT-15 colon; HOP-92 NSCLC; IGROV1 ovarian; M14 melanoma; NCI-H522 lung; OVCAR-3 ovarian; OVCAR-5 ovarian; OVCAR-8 ovarian; SF-295 CNS; SK-MEL-28 melanoma; SW-620 colon; TK-10 renal.
What all share (assay): growth of human tumour cells (NCI), 48 h

For `CC(=O)C1=CC=C/C1=N\Nc1ccccc1`, the TGI in the experiment with HCT-15 colon stood at 19.2 µM; in the experiment with HOP-92 NSCLC, 27.3 µM; in the experiment with IGROV1 ovarian, 21.3 µM; in the experiment with M14 melanoma, 22.7 µM; with NCI-H522 lung, 19.1 µM; in the experiment with OVCAR-3 ovarian, 9.57 µM. The TGI with OVCAR-5 ovarian came out at 19.7 µM; in the experiment with OVCAR-8 ovarian, 64.4 µM; with SF-295 CNS, 28.2 µM; with SK-MEL-28 melanoma, 27 µM; with SW-620 colon, 15.6 µM; in the experiment with TK-10 renal, 18.6 µM.
Turning to `COc1cccc(-n2nnc3c(N)nc(N)nc32)c1`, the TGI in the experiment with HCT-15 colon, in the experiment on HOP-92 NSCLC, in the experiment on IGROV1 ovarian, in the experiment on M14 melanoma, with NCI-H522 lung and in the experiment with OVCAR-3 ovarian was over 100 µM in each case. Besides, the TGI with OVCAR-5 ovarian, in the experiment on OVCAR-8 ovarian, in the experiment on SF-295 CNS, with SK-MEL-28 melanoma, with SW-620 colon and with TK-10 renal was over 100 µM each time.
For `CCOC(=O)C1(C(=O)OCC)C[C@H]2CON=C2[C@@H]1c1ccc(C(F)(F)F)cc1`, the TGI in the experiment with HCT-15 colon was over 100 µM; with HOP-92 NSCLC, over 100 µM; with IGROV1 ovarian it was 28.9 µM; in the experiment with M14 melanoma, over 100 µM; in the experiment with NCI-H522 lung it was 61 µM; with OVCAR-3 ovarian, over 100 µM. Further, the TGI with OVCAR-5 ovarian, in the experiment on OVCAR-8 ovarian, in the experiment on SF-295 CNS, in the experiment on SK-MEL-28 melanoma, in the experiment on SW-620 colon and in the experiment on TK-10 renal was over 100 µM throughout.
In the case of `CCCCc1cc2c(cc1O)CCC1C2CC[C@@]2(C)C1CC[C@@H]2O` (some centres not stated), the TGI with HCT-15 colon is over 100 µM; in the experiment with HOP-92 NSCLC, 39.3 µM; in the experiment on IGROV1 ovarian, 49.9 µM; with M14 melanoma it was 41.7 µM; with NCI-H522 lung, 43.7 µM; in the experiment with OVCAR-3 ovarian, 29.7 µM. Further, the TGI turned out to be 36.5 µM in the experiment with OVCAR-5 ovarian; 43.4 µM in the experiment on OVCAR-8 ovarian; 35.8 µM in the experiment with SF-295 CNS; 45.1 µM in the experiment on SK-MEL-28 melanoma; 59.2 µM with SW-620 colon; 33.7 µM in the experiment with TK-10 renal.
In the case of `OC1(c2ccc(Cl)cc2)c2ccccc2C2=Nc3ccccc3CN21` (configuration not stated), the TGI is over 100 µM in the experiment with HCT-15 colon; over 100 µM in the experiment on HOP-92 NSCLC; over 81.3 µM in the experiment with IGROV1 ovarian; over 100 µM with M14 melanoma; 67.2 µM in the experiment with NCI-H522 lung; 9.77 µM with OVCAR-3 ovarian. Moreover, the TGI is over 100 µM in the experiment with OVCAR-5 ovarian; 38.2 µM with OVCAR-8 ovarian; over 50.4 µM in the experiment on SF-295 CNS; 98.3 µM in the experiment on SK-MEL-28 melanoma; over 100 µM with SW-620 colon; over 100 µM in the experiment on TK-10 renal.
As for `CC1CCN(c2nnc(Cl)cc2C(=O)c2ccccc2)CC1`, the TGI in the experiment with HCT-15 colon is over 100 µM; in the experiment with HOP-92 NSCLC, 55.5 µM; in the experiment with IGROV1 ovarian it was over 100 µM; in the experiment with M14 melanoma, 95.5 µM; with NCI-H522 lung, 77.7 µM; in the experiment with OVCAR-3 ovarian it was 71 µM. In addition, the TGI was over 100 µM in the experiment on OVCAR-5 ovarian; over 100 µM in the experiment on OVCAR-8 ovarian; 83.9 µM in the experiment on SF-295 CNS; over 100 µM with SK-MEL-28 melanoma; 59.6 µM in the experiment on SW-620 colon; over 100 µM in the experiment with TK-10 renal.
On to `Cc1cn2c(/C=C3/C(=O)Nc4ccccc43)c(-c3ccccc3)nc2s1`, for which the TGI in the experiment with HCT-15 colon, in the experiment on HOP-92 NSCLC, with IGROV1 ovarian, in the experiment with M14 melanoma, with NCI-H522 lung and in the experiment with OVCAR-3 ovarian was over 100 µM throughout. Besides, the TGI with OVCAR-5 ovarian was over 100 µM; in the experiment with OVCAR-8 ovarian it was over 100 µM; with SF-295 CNS, over 100 µM; in the experiment with SK-MEL-28 melanoma it was over 100 µM; with SW-620 colon, over 100 µM; in the experiment on TK-10 renal, 51.2 µM.
Take `c1ccc(COc2nc3ccc(C45CC6CC(CC(C6)C4)C5)cc3[nH]2)cc1`: the TGI in the experiment with HCT-15 colon was over 29.5 µM; with HOP-92 NSCLC, 49.8 µM; with IGROV1 ovarian, over 100 µM; in the experiment with M14 melanoma it was 98.4 µM; in the experiment with NCI-H522 lung, 13.9 µM; in the experiment with OVCAR-3 ovarian, over 100 µM. In addition, the TGI is over 100 µM in the experiment with OVCAR-5 ovarian; over 100 µM with OVCAR-8 ovarian; over 100 µM in the experiment with SF-295 CNS; over 100 µM in the experiment on SK-MEL-28 melanoma; over 100 µM in the experiment on SW-620 colon; over 72.5 µM in the experiment with TK-10 renal.
As to `CCOC(=O)c1ccc(N=C/C=C(\Nc2ccc(C(=O)OCC)cc2)c2ccc3ccccc3c2)cc1`, the TGI in the experiment with HCT-15 colon was 61.1 µM; with HOP-92 NSCLC, over 100 µM; in the experiment on IGROV1 ovarian, over 100 µM; in the experiment on M14 melanoma, 59 µM; in the experiment with NCI-H522 lung it was over 100 µM; in the experiment on OVCAR-3 ovarian it was 83.5 µM. The TGI in the experiment with OVCAR-5 ovarian is over 100 µM; in the experiment with OVCAR-8 ovarian, over 100 µM; with SF-295 CNS, over 100 µM; with SK-MEL-28 melanoma it was 61.1 µM; with SW-620 colon, over 100 µM; in the experiment with TK-10 renal, 53.4 µM.
As to `CC(C)C[C@H](NC(=O)[C@@H](Cc1cccc2ccccc12)NC(=O)N1CCOCC1)B(O)O`, the TGI with HCT-15 colon stood at 50.1 µM; in the experiment with HOP-92 NSCLC, 8.55 µM; in the experiment with IGROV1 ovarian, 23.5 µM; with M14 melanoma, 10.8 µM; in the experiment on NCI-H522 lung it was 4.4 µM; in the experiment with OVCAR-3 ovarian it was 6.69 µM. The TGI was 13.5 µM in the experiment with OVCAR-5 ovarian; 44.9 µM with OVCAR-8 ovarian; 43.8 µM in the experiment with SF-295 CNS; 6.92 µM in the experiment with SK-MEL-28 melanoma; 12.2 µM in the experiment with SW-620 colon; 25.4 µM with TK-10 renal.
Turning to `CC1(C(O)c2ccccc2)CN(C(C)(C)C)C(=O)/C1=C\Sc1ccccc1` (configuration not stated), the TGI is over 100 µM in the experiment on HCT-15 colon; 21.7 µM in the experiment with HOP-92 NSCLC; over 100 µM in the experiment on IGROV1 ovarian; over 100 µM in the experiment on M14 melanoma; 22.9 µM in the experiment on NCI-H522 lung; over 100 µM in the experiment on OVCAR-3 ovarian. Besides, the TGI in the experiment with OVCAR-5 ovarian, with OVCAR-8 ovarian, with SF-295 CNS, with SK-MEL-28 melanoma, in the experiment with SW-620 colon and in the experiment with TK-10 renal was over 100 µM in each case.
